This is an account of results in patent US20100261783A1, “CRUCIFEROUS 3H-1,2-DITHIOLE-3-THIONE (D3T) AND METHODS OF PROTECTING AGAINST CELL INJURY” (priority 2009, published 2010).

For data set [1], the system named is SH-SY5Y cells. The data set is described as follows: Protection of SH-SY5Y cells against neurotoxicant-elicited cytotoxicity. It is filed as cell-based. The following applies: human neuroblastoma SH-SY5Y cells.
Data set [2] relates to primary human cardiomyocytes. Conditions: cited from earlier work.
Data set [3] concerns human cardiomyocytes. Conditions: cited from earlier work.
For another data set, the system named is human primary astrocytes. The data set is described as follows: Induction of cellular antioxidants and phase 2 enzymes in human primary astrocytes. It is filed as cell-based.
Data set [4] deals with human neuroblastoma SH-SY5Y cells. The following applies: D3T-pretreatment of SH-SY5Y cells; cited from earlier work.
Data set [5] relates to human cardiomyocytes. Put plainly: Protection of human cardiomyocytes from oxidative/electrophilic injury and doxorubicin toxicity. It is filed as cell-based.
The test system of data set [6] is human neuroblastoma SH-SY5Y cells. Put plainly: Induction of cellular antioxidants and phase 2 enzymes (GSH, NQO1, GCL) in SH-SY5Y cells. It is filed as cell-based.
Data set [7] concerns primary human cardiomyocytes. Put plainly: Induction of antioxidants and phase 2 enzymes in human cardiomyocytes. It is filed as cell-based.
Data set [8] has as its system SH-SY5Y cells. Conditions: D3T-pretreatment; dopamine, 6-hydroxydopamine, 4-hydroxy-2-nonenal, H2O2; cited from earlier work.

For the compound `S=c1ccss1` [D3T, 3H-1,2-dithiole-3-thione], in the data set on SH-SY5Y cells [1], the “protection against acrolein-induced cytotoxicity” value is “dramatic protection”. Moreover, the “upregulation of antioxidants and phase 2 enzymes” value in data set [2] is reported as “potently upregulated”. In addition, the “resistance to oxidative/electrophilic stress and doxorubicin toxicity” value in the data set on human cardiomyocytes [3] is reported as “increased resistance”. Moreover, the “induction of cellular antioxidants including glutathione (GSH) and phase 2 enzymes” value in the data set with human primary astrocytes is “able to induce”. In addition, the “induction of GSH, NQO1, and mitochondrial GSH” value in data set [4] is “induction”. Besides, the “protection of cardiomyocytes from injury elicited by doxorubicin” value in the data set with human cardiomyocytes [5] (doxorubicin) was “potently protected”. For the same compound, the “protection of cardiomyocytes from injury caused by free radicals and electrophiles” value with human cardiomyocytes [5] (wide range of free radicals and electrophiles) is given as “nearly complete protection”. Also, in data set [6] (SH-SY5Y cells), the “induction of glutathione (GSH)” value is “marked concentration- and time-dependent induction”; the “protein and mRNA expression of gamma-glutamylcysteine ligase (GCL)” value was “increased”. Also, the “induction of cellular antioxidants and phase 2 enzymes” value in data set [6] (human neuronal cells (neuroblastoma SH-SY5Y cells)) is recorded as “capable of inducing”. The “induction of antioxidants in mitochondria” value in data set [7] (mitochondria of the human cardiomyocytes) is reported as “potently induced”. The “induction of a series of antioxidants” value in [7] (primary human cardiomyocytes, total cellular) is listed as “potently induced”. Besides, in the data set with SH-SY5Y cells [8], the “protection against the cytotoxicity elicited by neurotoxicants” value is “significant protection”.
